Earlier results on three compounds are cited in patent US10024846B2, “Methods for treating diet-induced obesity by decreasing or inhibiting P2Y2 purinergic receptor expression or activity” (The United States of America as represented by the …, priority 2012, dated 2018).

The structures appear in SMILES notation.

By IC50 is commonly meant the concentration that inhibits the measured activity by half.

One data set deals with P2Y2 receptor. The conditions noted are these: competitive P2Y2 receptor antagonists; values from cited literature.
Another data set addresses rat P2Y4 receptor (Rattus norvegicus, UniProt O35811). The conditions noted are these: Herold et al. 2004.
The target of the next data set is human P2Y4 receptor (Homo sapiens, UniProt P51582). The conditions noted are these: Herold et al. 2004.
human P2Y4 receptor, sequence (P51582 whole entry): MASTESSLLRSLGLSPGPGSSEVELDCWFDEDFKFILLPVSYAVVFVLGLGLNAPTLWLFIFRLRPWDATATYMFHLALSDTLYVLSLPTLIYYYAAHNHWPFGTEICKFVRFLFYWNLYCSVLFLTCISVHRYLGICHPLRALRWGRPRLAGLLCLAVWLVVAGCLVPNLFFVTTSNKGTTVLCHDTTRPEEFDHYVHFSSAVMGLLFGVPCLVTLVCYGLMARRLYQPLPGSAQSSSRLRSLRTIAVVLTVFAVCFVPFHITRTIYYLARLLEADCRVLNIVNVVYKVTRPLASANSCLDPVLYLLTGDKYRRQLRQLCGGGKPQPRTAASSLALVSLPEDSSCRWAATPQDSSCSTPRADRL

rat P2Y4 receptor, sequence (O35811 whole entry): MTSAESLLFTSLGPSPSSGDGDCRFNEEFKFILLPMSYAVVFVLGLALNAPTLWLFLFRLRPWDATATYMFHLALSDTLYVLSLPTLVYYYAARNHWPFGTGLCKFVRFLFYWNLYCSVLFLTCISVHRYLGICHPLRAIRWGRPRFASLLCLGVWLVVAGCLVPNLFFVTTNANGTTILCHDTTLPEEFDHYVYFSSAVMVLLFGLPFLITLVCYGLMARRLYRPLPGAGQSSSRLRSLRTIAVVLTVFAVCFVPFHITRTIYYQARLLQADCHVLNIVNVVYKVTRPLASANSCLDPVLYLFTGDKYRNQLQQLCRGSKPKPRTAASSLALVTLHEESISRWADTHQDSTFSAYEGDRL

For `Cc1ccc2c(c1)C=Cc1cc(C)ccc1C2c1cn(Cc2ccc(C(=O)Nc3nnn[nH]3)o2)c(=O)[nH]c1=S` [AR-C118925], on P2Y2 receptor, the IC50 is roughly 6 µM. In the case of `Cn1cc(C2c3ccc(Cl)cc3C=Cc3scnc32)c(=S)[nH]c1=O` (stereo not shown) [AR-C126313], the half-maximal inhibitory concentration (IC50) on P2Y2 receptor is roughly 6 µM. For `Nc1ncnc2c1ncn2[C@@H]1O[C@H](COP(=O)(O)OP(=O)(O)OP(=O)(O)O)[C@@H](O)[C@H]1O` [ATP], the figures for the “agonist versus antagonist action at the P2Y4 receptor” value at rat P2Y4 receptor and at human P2Y4 receptor were “potent full agonist” and “potent competitive antagonist”, respectively.
